Source: US10980889B1 (Revolution Medicines, Inc., priority 2018, dated 2021)

What was measured:
P-Akt (S473) = assay: Cell based AlphaLISA assay, inhibition of P-Akt (S473) in MDA-MB-468 cells (mTORC2 substrate); settings: Homo sapiens, 4 h, AlphaLisa, two to four hours at 37° C., read-out: pIC50 for Inhibition of mTORC1 and mTORC2 Substrate Phosphorylation p-AKT1/2/3-(S473) (converted)
Outline: (§1)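 In MDA-MB-468 cells, phosphorylation of 4EBP1 (Thr37/46), P70S6K (Thr389) and AKT (Ser473) was measured after incubation with inhibitor by AlphaLISA SureFire Ultra on cell lysates, in duplicate. IC50 values came from control-normalized concentration-response regression.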

P-P70S6K (T389) = assay: Cell based AlphaLISA assay, inhibition of P-P70S6K (T389) in MDA-MB-468 cells (mTORC1 substrate); settings: Homo sapiens, 4 h, AlphaLisa, two to four hours at 37° C., read-out: pIC50 for Inhibition of mTORC1 and mTORC2 Substrate Phosphorylation p-P70S6K-(T389) (converted)
Outline: as §1

P-4E-BP1 (T37/46) = assay: Cell based AlphaLISA assay, inhibition of P-4E-BP1 (T37/46) in MDA-MB-468 cells (mTORC1 substrate); settings: Homo sapiens, 4 h, AlphaLisa, two to four hours at 37° C., read-out: pIC50 for Inhibition of mTORC1 and mTORC2 Substrate Phosphorylation P-4E-BP1-(T37/46) (converted)
Outline: as §1

SMILES | IC50 (P-Akt (S473)) | IC50 (P-P70S6K (T389)) | IC50 (P-4E-BP1 (T37/46))
CO[C@H]1C[C@@H]2CC[C@@H](C)[C@@](O)(O2)C(=O)C(=O)N2CCCC[C@H]2C(=O)O[C@H]([C@H](C)C[C@@H]2CC[C@@H](OC(=O)NCc3cnc(N4CCN(C(=O)CCOCCN5CCN(C(=O)CCC(=O)NCCCCn6nc(-c7cnc8[nH]ccc8c7)c7c(N)ncnc76)CC5)CC4)nc3)[C@H](OC)C2)CC(=O)[C@H](C)/C=C(\C)[C@@H](O)[C@@H](OC)C(=O)[C@H](C)C[C@H](C)/C=C/C=C/C=C/1C [Example 116] | > 1000 nM | < 1 nM | < 3.16 nM
CO[C@H]1C[C@@H]2CC[C@@H](C)[C@@](O)(O2)C(=O)C(=O)N2CCCC[C@H]2C(=O)O[C@H]([C@H](C)C[C@@H]2CC[C@@H](OC(=O)N3CCc4nc(N5CCN(C(=O)CCOCCN6CCN(c7ncc(C(=O)N8CCc9cc(Cn%10nc(-c%11ccc%12oc(N)nc%12c%11)c%11c(N)ncnc%11%10)ccc9C8)cn7)CC6)CC5)ncc4C3)[C@H](OC)C2)C[C@@H](OC)[C@H](C)/C=C(\C)[C@@H](O)[C@@H](OC)C(=O)[C@H](C)C[C@H](C)/C=C/C=C/C=C/1C [Example 117] | 3.16 to 31.6 nM | < 1 nM | < 3.16 nM
CO[C@H]1C[C@@H]2CC[C@@H](C)[C@@](O)(O2)C(=O)C(=O)N2CCCC[C@H]2C(=O)O[C@H]([C@H](C)C[C@@H]2CC[C@@H](OC(=O)NCc3cnc(N4CCN(C(=O)CCOCCN5CCN(c6ncc(C(=O)N7CCc8cc(Cn9nc(-c%10ccc%11oc(N)nc%11c%10)c%10c(N)ncnc%109)ccc8C7)cn6)CC5)CC4)nc3)[C@H](OC)C2)CC[C@H](C)/C=C(\C)[C@@H](O)[C@@H](OC)C(=O)[C@H](C)C[C@H](C)/C=C/C=C/C=C/1C [Example 118] | 3.16 to 31.6 nM | < 1 nM | < 3.16 nM
CO[C@H]1C[C@@H]2CC[C@@H](C)[C@@](O)(O2)C(=O)C(=O)N2CCCC[C@H]2C(=O)O[C@H]([C@H](C)C[C@@H]2CC[C@@H](OC(=S)NCc3cnc(N4CCN(C(=O)CCOCCN5CCN(c6ncc(C(=O)N7CCc8cc(Cn9nc(-c%10ccc%11oc(N)nc%11c%10)c%10c(N)ncnc%109)ccc8C7)cn6)CC5)CC4)nc3)[C@H](OC)C2)CC(=O)[C@H](C)/C=C(\C)[C@@H](O)[C@@H](OC)C(=O)[C@H](C)C[C@H](C)/C=C/C=C/C=C/1C [Example 119] | 3.16 to 31.6 nM | < 1 nM | < 3.16 nM
CO[C@H]1C[C@@H]2CC[C@@H](C)[C@@](O)(O2)C(=O)C(=O)N2CCCC[C@H]2C(=O)O[C@H]([C@H](C)C[C@@H]2CC[C@@H](OC(=S)NCc3cnc(N4CCN(C(=O)CCOCCN5CCN(c6ncc(C(=O)N7CCc8cc(Cn9nc(-c%10ccc%11oc(N)nc%11c%10)c%10c(N)ncnc%109)ccc8C7)cn6)CC5)CC4)nc3)[C@H](OC)C2)C[C@@H](OC)[C@H](C)/C=C(\C)[C@@H](O)[C@@H](OC)C(=O)[C@H](C)C[C@H](C)/C=C/C=C/C=C/1C [Example 121] | > 1000 nM | < 1 nM | < 3.16 nM
CO[C@H]1C[C@@H]2CC[C@@H](C)[C@@](O)(O2)C(=O)C(=O)N2CCCC[C@H]2C(=O)O[C@H]([C@H](C)C[C@@H]2CC[C@@H](OC(=O)NCc3cnc(N4CCN(C(=O)CCOCCN5CCN(c6ncc(C(=O)NCCS(=O)(=O)c7ccc(C(=O)N8CCOc9ccc(-c%10ccc(N)nc%10)cc9C8)c(C)c7F)cn6)CC5)CC4)nc3)[C@H](OC)C2)C[C@@H](O)[C@H](C)/C=C(\C)[C@@H](O)[C@@H](OC)C(=O)[C@H](C)C[C@H](C)/C=C/C=C/C=C/1C [Example 122] | 3.16 to 31.6 nM | < 1 nM | < 3.16 nM
CO[C@H]1C[C@@H]2CC[C@@H](C)[C@@](O)(O2)C(=O)C(=O)N2CCCC[C@H]2C(=O)O[C@H]([C@H](C)C[C@@H]2CC[C@@H](OC(=O)NCc3cnc(N4CCN(C(=O)CCOCCN5CCN(c6ncc(C(=O)NCCS(=O)(=O)c7ccc(C(=O)N8CCOc9ccc(-c%10ccc(N)nc%10)cc9C8)c(C)c7F)cn6)CC5)CC4)nc3)[C@H](OC)C2)C[C@@H](OC)[C@H](C)/C=C(\C)[C@@H](O)[C@@H](OC)C(=O)[C@H](C)C[C@H](C)/C=C/C=C/C=C/1C [Example 123] | 31.6 to 1000 nM | < 1 nM | < 3.16 nM
CO[C@H]1C[C@@H]2CC[C@@H](C)[C@@](O)(O2)C(=O)C(=O)N2CCCC[C@H]2C(=O)O[C@H]([C@H](C)C[C@@H]2CC[C@@H](OC(=O)NCc3cnc(N4CCN(C(=O)CCOCCN5CCN(c6ncc(C(=O)NCCS(=O)(=O)c7ccc(C(=O)N8CCOc9ccc(-c%10ccc(N)nc%10)cc9C8)c(C)c7)cn6)CC5)CC4)nc3)[C@H](OC)C2)CC(=O)[C@H](C)/C=C(\C)[C@@H](O)[C@@H](OC)C(=O)[C@H](C)C[C@H](C)/C=C/C=C/C=C/1C [Example 124] | 3.16 to 31.6 nM | < 1 nM | < 3.16 nM
CO[C@H]1C[C@@H]2CC[C@@H](C)[C@@](O)(O2)C(=O)C(=O)N2CCCC[C@H]2C(=O)O[C@H]([C@H](C)C[C@@H]2CC[C@@H](OC(=O)NCc3cnc(N4CCN(C(=O)CCOCCN5CCN(c6ncc(C(=O)NCCS(=O)(=O)c7ccc(C(=O)N8CCOc9ccc(-c%10ccc(N)nc%10)cc9C8)c(C)c7)cn6)CC5)CC4)nc3)[C@H](OC)C2)C[C@@H](O)[C@H](C)/C=C(\C)[C@@H](O)[C@@H](OC)C(=O)[C@H](C)C[C@H](C)/C=C/C=C/C=C/1C [Example 125] | 3.16 to 31.6 nM | < 1 nM | < 3.16 nM
CO[C@H]1C[C@@H]2CC[C@@H](C)[C@@](O)(O2)C(=O)C(=O)N2CCCC[C@H]2C(=O)O[C@H]([C@H](C)C[C@@H]2CC[C@@H](OC(=O)NCc3cnc(N4CCN(C(=O)CCOCCOCCN5CCN(c6ncc(C(=O)N7CCc8cc(Cn9nc(-c%10ccc%11[nH]ccc%11c%10)c%10c(N)ncnc%109)ccc8C7)cn6)CC5)CC4)nc3)[C@H](OC)C2)CC(=O)[C@H](C)/C=C(\C)[C@@H](O)[C@@H](OC)C(=O)[C@H](C)C[C@H](C)/C=C/C=C/C=C/1C [Example 126] | > 1000 nM | < 1 nM | 3.16 to 31.6 nM
CO[C@H]1C[C@@H]2CC[C@@H](C)[C@@](O)(O2)C(=O)C(=O)N2CCCC[C@H]2C(=O)O[C@H]([C@H](C)C[C@@H]2CC[C@@H](OC(=O)N3CCc4nc(N5CCN(C(=O)CCOCCN6CCN(c7ncc(C(=O)N8CCc9cc(Cn%10nc(-c%11ccc%12[nH]ccc%12c%11)c%11c(N)ncnc%11%10)ccc9C8)cn7)CC6)CC5)ncc4C3)[C@H](OC)C2)CC(=O)[C@H](C)/C=C(\C)[C@@H](O)[C@@H](OC)C(=O)[C@H](C)C[C@H](C)/C=C/C=C/C=C/1C [Example 127] | > 1000 nM | < 1 nM | 3.16 to 31.6 nM
CO[C@H]1C[C@@H]2CC[C@@H](C)[C@@](O)(O2)C(=O)C(=O)N2CCCC[C@H]2C(=O)O[C@H]([C@H](C)C[C@@H]2CC[C@@H](OC(=O)NCc3cnc(N4CCN(CCOCCN5CCN(c6ncc(C(=O)N7CCc8cc(Cn9nc(-c%10ccc%11oc(N)nc%11c%10)c%10c(N)ncnc%109)ccc8C7)cn6)CC5)CC4)nc3)[C@H](OC)C2)C[C@@H](OC)[C@H](C)/C=C(\C)[C@@H](O)[C@@H](OC)C(=O)[C@H](C)C[C@H](C)/C=C/C=C/C=C/1C [Example 128] | 31.6 to 1000 nM | < 1 nM | 3.16 to 31.6 nM
CO[C@H]1C[C@@H]2CC[C@@H](C)[C@@](O)(O2)C(=O)C(=O)N2CCCC[C@H]2C(=O)O[C@H]([C@H](C)C[C@@H]2CC[C@@H](OC(=O)N3CCc4nc(N5CCN(CCOCCN6CCN(c7ncc(C(=O)N8CCc9cc(Cn%10nc(-c%11ccc%12oc(N)nc%12c%11)c%11c(N)ncnc%11%10)ccc9C8)cn7)CC6)CC5)ncc4C3)[C@H](OC)C2)C[C@@H](OC)[C@H](C)/C=C(\C)[C@@H](O)[C@@H](OC)C(=O)[C@H](C)C[C@H](C)/C=C/C=C/C=C/1C [Example 129] | > 1000 nM | < 1 nM | < 3.16 nM
CO[C@H]1C[C@@H]2CC[C@@H](C)[C@@](O)(O2)C(=O)C(=O)N2CCCC[C@H]2C(=O)O[C@H]([C@H](C)C[C@@H]2CC[C@@H](OC(=O)NCc3cnc(N4CCN(CCOCCN5CCN(c6ncc(C(=O)N7CCc8cc(Cn9nc(-c%10ccc%11[nH]ccc%11c%10)c%10c(N)ncnc%109)ccc8C7)cn6)CC5)CC4)nc3)[C@H](OC)C2)CC(=O)[C@H](C)/C=C(\C)[C@@H](O)[C@@H](OC)C(=O)[C@H](C)C[C@H](C)/C=C/C=C/C=C/1C [Example 130] | > 1000 nM | < 1 nM | < 3.16 nM
CO[C@H]1C[C@@H]2CC[C@@H](C)[C@@](O)(O2)C(=O)C(=O)N2CCCC[C@H]2C(=O)O[C@H]([C@H](C)C[C@@H]2CC[C@@H](OC(=O)N3CCc4nc(N5CCN(CCOCCN6CCN(c7ncc(C(=O)N8CCc9cc(Cn%10nc(-c%11ccc%12[nH]ccc%12c%11)c%11c(N)ncnc%11%10)ccc9C8)cn7)CC6)CC5)ncc4C3)[C@H](OC)C2)CC(=O)[C@H](C)/C=C(\C)[C@@H](O)[C@@H](OC)C(=O)[C@H](C)C[C@H](C)/C=C/C=C/C=C/1C [Example 131] | 3.16 to 31.6 nM | < 1 nM | < 3.16 nM
CO[C@H]1C[C@@H]2CC[C@@H](C)[C@@](O)(O2)C(=O)C(=O)N2CCCC[C@H]2C(=O)O[C@H]([C@H](C)C[C@@H]2CC[C@@H](OC(=O)NCc3cnc(N4CCN(C(=O)CCOCCN5CCN(C(=O)CCC(=O)N6CCc7cc(Cn8nc(-c9ccc%10oc(N)nc%10c9)c9c(N)ncnc98)ccc7C6)CC5)CC4)nc3)[C@H](OC)C2)C[C@@H](O)[C@H](C)/C=C(\C)[C@@H](O)[C@@H](OC)C(=O)[C@H](C)C[C@H](C)/C=C/C=C/C=C/1C [Example 132] | 3.16 to 31.6 nM | < 1 nM | < 3.16 nM
